Values quoted from earlier work as cited in PMC6270976, “Pharmacokinetic Study in Mice of Galphimine-A, an Anxiolytic Compound from Galphimia glauca” (Molecules, 2014).
Entries after “also recorded” stand apart in the source; their conditions may differ. Like-named read-outs stand apart in the source and are kept apart here.

How the values were obtained:
[1] = cited from earlier work
[2] = design: method as in PMID 14758039; settings: cited from earlier work
[3] = design: method as in PMID 18452416; settings: humans; cited from earlier work

For `COC(=O)[C@@]12CC[C@@]3(C)[C@@H]4C=CC(=O)OC[C@]4([C@@H](C)O)C[C@@H](O)[C@@H]3[C@@]1(C)CC[C@@]1(C)CC=C(C)C[C@]12O` [G–B, galphimine-B], the Anxiolytic activity ([1]; among the galphimines) is given as “most active; also recorded: highest anxiolytic activity”.

For `COC(=O)[C@@]12CC[C@@]3(C)[C@@H]4C=CC(=O)OC[C@]4([C@@H](C)O)[C@@H](OC(C)=O)[C@@H](O)[C@@H]3[C@@]1(C)CC[C@@]1(C)CC=C(C)C[C@]12O` [G–E, galphimine-E], the Anxiolytic activity [1] is given as “inactive”.

For `CC1(C)[C@@H](O)CC[C@]2(C)[C@H]3C(=O)C=C4[C@@H]5C[C@@](C)(C(=O)O)CC[C@]5(C)CC[C@@]4(C)[C@]3(C)CC[C@@H]12` [glycyrrhetinic acid], the “k10 (elimination rate constant)” value ([2]; mice, 100 mg/kg orally, one-compartment model) is given as 0.0006 min⁻¹, the “AUC0→∞” value ([2]; oral administration in mice) is given as 2,454 µg·min·mL^−1 and the k10 [3] is given as 0.0012 min⁻¹.
